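Step 1: Grow cells in 96-well plates. Step 2: Expose to compound for 48 hours at 5 concentrations. Step 3: Interpolate endpoints linearly; if unreached, use highest concentration. At the GI50, growth is halved.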 Active and inactive are the calls of the source. No stated cut-off is given here; in the data, active = GI50 up to about 1.1 µM and inactive = higher.
How the values were obtained:
Assay in all cases: NCI tumour cell line growth inhibition, 48 h
786-0 = system: 786-0
A549 = system: A549
ACHN = system: ACHN
CAKI-1 = system: CAKI-1
CCRF-CEM = system: CCRF-CEM
COLO 205 = system: COLO 205
DU-145 = system: DU-145
EKVX = system: EKVX
HCC 2998 = system: HCC 2998
HCT-116 = system: HCT-116
HL-60 = system: HL-60
HOP-62 = system: HOP-62
HOP-92 = system: HOP-92
HT-29 = system: HT-29
Hs-578T = system: Hs-578T
IGROV-1 = system: IGROV-1
K562 = system: K562
KM12 = system: KM12
LOX IMVI = system: LOX IMVI
M14 = system: M14
MCF7 = system: MCF7
MDA-MB-231 = system: MDA-MB-231
MDA-MB-435 = system: MDA-MB-435
MDA-N = system: MDA-N
MOLT-4 = system: MOLT-4
Malme-3M = system: Malme-3M
NCI-H226 = system: NCI-H226
NCI-H23 = system: NCI-H23
NCI-H460 = system: NCI-H460
NCI-H522 = system: NCI-H522
NCI/ADR-RES = system: NCI/ADR-RES
OVCAR-3 = system: OVCAR-3
OVCAR-4 = system: OVCAR-4
OVCAR-5 = system: OVCAR-5
OVCAR-8 = system: OVCAR-8
PC-3 = system: PC-3
RPMI-8226 = system: RPMI-8226
RXF 393 = system: RXF 393
SF-268 = system: SF-268
SF-295 = system: SF-295
SF-539 = system: SF-539
SK-MEL-28 = system: SK-MEL-28
SK-MEL-5 = system: SK-MEL-5
SK-OV-3 = system: SK-OV-3
SN12C = system: SN12C
SNB-19 = system: SNB-19
SNB-75 = system: SNB-75
SR = system: SR
SW-620 = system: SW-620
T47D = system: T47D
TK-10 = system: TK-10
UACC-257 = system: UACC-257
UACC-62 = system: UACC-62
UO-31 = system: UO-31
A498 = system: A498
HCT-15 = system: HCT-15
SK-MEL-2 = system: SK-MEL-2
U-251 = system: U-251

For `C/C(=C\CNc1ncnc2c1ncn2CCC#N)CO`, the GI50 (786-0) was > 100 µM (inactive), the GI50 (A549) was > 100 µM (inactive) and the GI50 (ACHN) was > 100 µM (inactive). For the same molecule, the GI50 (CAKI-1) was > 100 µM (inactive), the GI50 (CCRF-CEM) was > 100 µM (inactive) and the GI50 (COLO 205) was > 100 µM (inactive). The GI50 (DU-145) was > 100 µM (inactive), the GI50 (EKVX) was > 100 µM (inactive) and the GI50 (HCC 2998) was > 100 µM (inactive). The GI50 (HCT-116) was > 100 µM (inactive), the GI50 (HL-60) was > 100 µM (inactive) and the GI50 (HOP-62) was > 100 µM (inactive). The GI50 (HOP-92) was > 100 µM (inactive), the GI50 (HT-29) was > 100 µM (inactive) and the GI50 (Hs-578T) was > 100 µM (inactive). The GI50 (IGROV-1) was > 100 µM (inactive), the GI50 (K562) was > 100 µM (inactive) and the GI50 (KM12) was > 100 µM (inactive). For the same molecule, the GI50 (LOX IMVI) was > 100 µM (inactive), the GI50 (M14) was > 100 µM (inactive) and the GI50 (MCF7) was > 100 µM (inactive). For the same molecule, the GI50 (MDA-MB-231) was > 100 µM (inactive), the GI50 (MDA-MB-435) was > 100 µM (inactive) and the GI50 (MDA-N) was > 100 µM (inactive). For the same molecule, the GI50 (MOLT-4) was > 100 µM (inactive), the GI50 (Malme-3M) was > 100 µM (inactive) and the GI50 (NCI-H226) was > 100 µM (inactive). For the same molecule, the GI50 (NCI-H23) was > 100 µM (inactive), the GI50 (NCI-H460) was > 100 µM (inactive) and the GI50 (NCI-H522) was > 100 µM (inactive). The GI50 (NCI/ADR-RES) was > 100 µM (inactive), the GI50 (OVCAR-3) was > 100 µM (inactive) and the GI50 (OVCAR-4) was > 100 µM (inactive). The GI50 (OVCAR-5) was > 100 µM (inactive), the GI50 (OVCAR-8) was > 100 µM (inactive) and the GI50 (PC-3) was > 100 µM (inactive). For the same molecule, the GI50 (RPMI-8226) was > 100 µM (inactive), the GI50 (RXF 393) was > 100 µM (inactive) and the GI50 (SF-268) was > 100 µM (inactive). For the same molecule, the GI50 (SF-295) was > 100 µM (inactive), the GI50 (SF-539) was > 100 µM (inactive) and the GI50 (SK-MEL-28) was > 100 µM (inactive). For the same molecule, the GI50 (SK-MEL-5) was > 100 µM (inactive), the GI50 (SK-OV-3) was > 100 µM (inactive) and the GI50 (SN12C) was > 100 µM (inactive). For the same molecule, the GI50 (SNB-19) was > 100 µM (inactive), the GI50 (SNB-75) was > 100 µM (inactive) and the GI50 (SR) was > 100 µM (inactive). The GI50 (SW-620) was > 100 µM (inactive), the GI50 (T47D) was > 100 µM (inactive) and the GI50 (TK-10) was > 100 µM (inactive). For the same molecule, the GI50 (UACC-257) was > 100 µM (inactive), the GI50 (UACC-62) was > 100 µM (inactive) and the GI50 (UO-31) was > 100 µM (inactive).

For `CC(=O)OC1[C@H](n2ccnc2)C[C@H]2[C@@H]3CC=C4CC(N5CCCC5)CC[C@]4(C)[C@H]3CC[C@]12C` (stereo partly drawn), the GI50 (786-0) was 22.5 µM (inactive), the GI50 (A498) was 32.7 µM (inactive) and the GI50 (A549) was 41.4 µM (inactive). The GI50 (ACHN) was 52.2 µM (inactive), the GI50 (CAKI-1) was 43.5 µM (inactive) and the GI50 (CCRF-CEM) was 25.6 µM (inactive). For the same molecule, the GI50 (COLO 205) was 23.7 µM (inactive), the GI50 (DU-145) was > 100 µM (inactive) and the GI50 (EKVX) was 70.1 µM (inactive). For the same molecule, the GI50 (HCT-116) was 21 µM (inactive), the GI50 (HCT-15) was 21.3 µM and the GI50 (HL-60) was 12.1 µM (inactive). The GI50 (HOP-92) was 69.5 µM (inactive), the GI50 (HT-29) was 5.35 µM (inactive) and the GI50 (Hs-578T) was > 100 µM (inactive). The GI50 (IGROV-1) was 43.7 µM (inactive), the GI50 (K562) was 17.1 µM (inactive) and the GI50 (KM12) was 58.3 µM (inactive). For the same molecule, the GI50 (LOX IMVI) was 10.1 µM (inactive), the GI50 (M14) was 21.8 µM (inactive) and the GI50 (MCF7) was 33.9 µM (inactive). For the same molecule, the GI50 (MDA-MB-231) was 66.2 µM (inactive), the GI50 (MDA-MB-435) was 23.8 µM (inactive) and the GI50 (MDA-N) was 28.1 µM (inactive). The GI50 (MOLT-4) was 17.3 µM (inactive), the GI50 (NCI-H226) was 40.1 µM (inactive) and the GI50 (NCI-H23) was 60.3 µM (inactive). For the same molecule, the GI50 (NCI-H460) was 6.71 µM (inactive), the GI50 (NCI-H522) was 24.1 µM (inactive) and the GI50 (NCI/ADR-RES) was > 100 µM (inactive). The GI50 (OVCAR-3) was 54.6 µM (inactive), the GI50 (OVCAR-4) was 87.3 µM (inactive) and the GI50 (OVCAR-5) was > 100 µM (inactive). The GI50 (OVCAR-8) was 62.5 µM (inactive), the GI50 (PC-3) was 34.4 µM (inactive) and the GI50 (RPMI-8226) was 23.2 µM (inactive). For the same molecule, the GI50 (RXF 393) was 11.7 µM (inactive), the GI50 (SF-268) was 34.8 µM (inactive) and the GI50 (SF-295) was 20.5 µM (inactive). For the same molecule, the GI50 (SF-539) was 14.1 µM (inactive), the GI50 (SK-MEL-28) was 21.2 µM (inactive) and the GI50 (SK-MEL-2) was 20.3 µM (inactive). The GI50 (SK-MEL-5) was 33 µM (inactive), the GI50 (SN12C) was 51.9 µM (inactive) and the GI50 (SNB-19) was > 100 µM (inactive). The GI50 (SNB-75) was > 100 µM (inactive), the GI50 (SR) was 12 µM (inactive) and the GI50 (SW-620) was 54.1 µM (inactive). For the same molecule, the GI50 (TK-10) was 88.1 µM (inactive), the GI50 (U-251) was 55.3 µM (inactive) and the GI50 (UACC-257) was 18.8 µM (inactive). For the same molecule, the GI50 (UACC-62) was 27.5 µM (inactive) and the GI50 (UO-31) was 49.5 µM (inactive).

With `COC(=O)C(Nc1ccc(OC)cc1)c1ccccc1` (stereo not drawn) the GI50 (786-0) was > 100 µM (inactive), the GI50 (A549) was > 100 µM (inactive) and the GI50 (ACHN) was > 100 µM (inactive). For the same molecule, the GI50 (CAKI-1) was > 100 µM (inactive), the GI50 (CCRF-CEM) was > 100 µM (inactive) and the GI50 (COLO 205) was > 100 µM (inactive). The GI50 (DU-145) was > 100 µM (inactive), the GI50 (EKVX) was > 100 µM (inactive) and the GI50 (HCT-116) was > 100 µM (inactive). The GI50 (HCT-15) was > 100 µM, the GI50 (HOP-62) was > 100 µM (inactive) and the GI50 (HT-29) was > 100 µM (inactive). For the same molecule, the GI50 (Hs-578T) was > 100 µM (inactive), the GI50 (IGROV-1) was > 100 µM (inactive) and the GI50 (K562) was > 100 µM (inactive). The GI50 (KM12) was > 100 µM (inactive), the GI50 (LOX IMVI) was > 100 µM (inactive) and the GI50 (M14) was > 100 µM (inactive). The GI50 (MCF7) was > 100 µM (inactive), the GI50 (MDA-MB-435) was > 100 µM (inactive) and the GI50 (MDA-N) was > 100 µM (inactive). The GI50 (MOLT-4) was > 100 µM (inactive), the GI50 (NCI-H23) was > 100 µM (inactive) and the GI50 (NCI-H460) was > 100 µM (inactive). The GI50 (NCI-H522) was > 100 µM (inactive), the GI50 (NCI/ADR-RES) was 74.1 µM (inactive) and the GI50 (OVCAR-3) was > 100 µM (inactive). For the same molecule, the GI50 (OVCAR-5) was > 100 µM (inactive), the GI50 (OVCAR-8) was > 100 µM (inactive) and the GI50 (PC-3) was > 100 µM (inactive). For the same molecule, the GI50 (RPMI-8226) was 83.9 µM (inactive), the GI50 (SF-268) was > 100 µM (inactive) and the GI50 (SF-295) was 89.3 µM (inactive). For the same molecule, the GI50 (SF-539) was > 100 µM (inactive), the GI50 (SK-MEL-28) was > 100 µM (inactive) and the GI50 (SK-MEL-2) was > 100 µM (inactive). For the same molecule, the GI50 (SK-MEL-5) was > 100 µM (inactive), the GI50 (SN12C) was > 100 µM (inactive) and the GI50 (SNB-19) was > 100 µM (inactive). For the same molecule, the GI50 (SR) was > 100 µM (inactive), the GI50 (SW-620) was > 100 µM (inactive) and the GI50 (T47D) was > 100 µM (inactive). The GI50 (TK-10) was > 100 µM (inactive), the GI50 (UACC-257) was > 100 µM (inactive) and the GI50 (UACC-62) was > 100 µM (inactive). For the same molecule, the GI50 (UO-31) was > 100 µM (inactive).

Reference: ChEMBL document CHEMBL1201862, “PubChem BioAssay data set” (2004)
